≈ marks a conversion by molar mass, not a printed value. Like-named read-outs stand apart in the source and are kept apart here.
Columns and labels:
[1] = tested on: Escherichia coli ATCC 11229; test: Microdilution broth MIC assay; type: cell-based; conditions: ATCC11229, Ec, Mueller Hinton broth, about 17 hr
Description: (§1) Test organisms. The test organisms are listed in Table 5 along with their source. Prior to assay, overnight bacterial slant cultures were used to inoculate Mueller Hinton broth followed by incubation for 5-7 hr. Each culture was then standardized turbidimetrically to a viable count of about 10^6 colony forming units/ml and used to inoculate the mirotiter assay plates. The viable count after addition to the plates was about 5×10^5 CFU/ml.
(§2) Experimental design. The MIC of the test compounds for the bacterial strains was determined with a microdilution broth assay in 96 well microtiter plates. The test compounds were dissolved in DMSO and then diluted 10-fold in assay medium (Mueller Hinton broth) to obtain final concentrations of 0.128, 1.28, 12.8, and 128 μg/ml. A viability control containing DMSO, diluted in the same manner as the test compounds, was used to confirm that the DMSO was not inhibitory by itself. Trimethoprim (TMP) was used as a positive drug control. The assay plates were incubated at 37° C. for about 17 hr and each assay well observed visually for growth. The MIC was determined at the lowest concentration of drug which inhibited growth. [drawing 32]

[2] = tested on: Proteus mirabilis ATCC 9921; test: Microdilution broth MIC assay; type: cell-based; conditions: ATCC9921, Pm, Mueller Hinton broth, about 17 hr
Description: as §1, §2

[3] = tested on: Streptococcus pneumoniae ATCC 6303; test: Microdilution broth MIC assay; type: cell-based; conditions: ATCC6303, Sp, Mueller Hinton broth, about 17 hr
Description: as §1, §2

[4] = tested on: Staphylococcus epidermidis ATCC 35984; test: Microdilution broth MIC assay; type: cell-based; conditions: ATCC35984, Se, Mueller Hinton broth, about 17 hr
Description: as §1, §2

[5] = tested on: Staphylococcus aureus ATCC 6538; test: Microdilution broth MIC assay; type: cell-based; conditions: ATCC6538, Sa, Mueller Hinton broth, about 17 hr
Description: as §1, §2

[6] = tested on: Pseudomonas aeruginosa ATCC 15442; test: Microdilution broth MIC assay; type: cell-based; conditions: ATCC15442, Pa, Mueller Hinton broth, about 17 hr
Description: as §1, §2

[7] = tested on: Klebsiella pneumoniae ATCC 4352; test: Microdilution broth MIC assay; type: cell-based; conditions: ATCC4352, Kp, Mueller Hinton broth, about 17 hr
Description: as §1, §2

Description for HIV-1: This is a cytoprotection assay that uses the T-lymphoblastoid tumor cell line CEM-SS and laboratory adapted strains of HIV-1. Upon infection with HIV, the CEM-SS cells form syncytia and eventually die, producing large amounts of progeny virus over the course of 4-6 days at the standard multiplicity of infection (0.01). The antiviral assay measures the ability of a given compound to inhibit the HIV-induced cell killing. […] The activity of the compound is evaluated by measuring cell viability at 6 days post-infection and comparing the viability to that obtained in cell control (cells only), virus control (cells and virus only) and toxicity control (cells and compound only) wells.
Efficacy of the compound in cell culture is measured by increased cell viability in CEM-SS assays or reduction in virus production in PBMC assays. The data obtained yields a dose response curve which can be evaluated to determine doses which yield 25%, 50% and 95% protection from HIV-induced cell killing or virus production. […] These concentrations are reported as the TC25, TC50 and TC95 values. The ratio of toxicity to efficacy constitutes the therapeutic index TC50/IC50.
CEM-SS cells assay measures the ability of the compound to inhibit HIV induced cell killing. The cells are stained at 6 days post-infection with the tetrazolium dye XTT which is converted to a colored formazan product by the mitochondria of viable cells. Protection from cell killing afforded by the test compound is measured by comparison to both cell controls and virus controls. Cell killing in this system is directly related to the amount of virus produced by the infected cells and XTT-formazan production is proportional to the number of viable cells in each well. Toxicity of the compound to the target cells is measured in parallel.
CEM-SS cells (or other established human cell line used in these experiments) were passaged in T-150 flasks for use in the assay. On the day preceding the assay, the cells were split 1:2 to assure they would be in an exponential growth phase at time of infection. On the day of assay the cells were washed twice with tissue culture medium and resuspended in fresh tissue culture medium. Total cell and viability counting was performed using hemacytometer and trypan blue dye exclusion. Cell viability was greater than 95% for the cells to be utilized in the assay. The cells were pelleted and resuspended at 2.5×10^4 cells per ml in tissue culture medium. Cells were added to the drug-containing plates in a volume of 50 μl.
A pretitered aliquot of virus was removed from the freezer (−80° C.) and allowed to thaw slowly to room temperature in a biological safety cabinet. The virus was resuspended and diluted into tissue culture medium such that the amount of virus added to each well in a volume of 50 μl will be the amount determined to give complete cell killing at 6 days post-infection. In general the virus pools produced with the IIIB isolate of HIV required the addition of 5 μl of virus per well.
Each plate contained cell control wells (cells only), virus control wells (cells plus virus), drug toxicity control wells (cells plus drug only), drug colorimetric control wells (drug only) as well as experimental wells (drug plus cells plus virus).
After 6 days of incubation at 37° C. in a 5% CO2 incubator the test plates were analyzed by staining with the tetrazolium dye XTT. XTT-tetrazolium is metabolized by the mitochondrial enzymes of metabolically active cells to a soluble formazan product, allowing the rapid quantitative analysis of the inhibition of HIV-induced cell killing by anti-HIV test substances. On day 6 post-infection plates were removed from the incubator and observed.

Which “% RED. IN VIRAL CPE” value (HIV-1; 0.00032 uG/mL, CEM-SS, HIV1 RF) does the source give for `N=C(NCCCCCCNC(=N)NC(=N)N1CCN(c2cc3c(cc2F)c(=O)c(C(=O)O)cn3C2CC2)CC1)NC(=N)N1CCN(c2cc3c(cc2F)c(=O)c(C(=O)O)cn3C2CC2)CC1` [BVS-10A] here?
The value was 3%.

What about the “ANTIVIRAL TEST VALUES MEAN O.D.” value (HIV-1; 0.00032 uG/mL, CEM-SS, HIV1 RF) of the same compound?
The value was 0.038 O.D.

And the “% RED. IN VIRAL CPE” value (HIV-1; 0.001 uG/mL, CEM-SS, HIV1 RF)?
Its value is 4%.

What about the “ANTIVIRAL TEST VALUES MEAN O.D.” value (HIV-1; 0.001 uG/mL, CEM-SS, HIV1 RF) of the same compound?
The value was 0.049 O.D.

What about the “% RED. IN VIRAL CPE” value (HIV-1; 0.0032 uG/mL, CEM-SS, HIV1 RF) of the same compound?
Its value is 1%.

What about the “ANTIVIRAL TEST VALUES MEAN O.D.” value (HIV-1; 0.0032 uG/mL, CEM-SS, HIV1 RF) of the same compound?
Its value is 0.009 O.D.

What about the “% RED. IN VIRAL CPE” value (HIV-1; 0.01 uG/mL, CEM-SS, HIV1 RF) of the same compound?
Its value is 4%.

And the “ANTIVIRAL TEST VALUES MEAN O.D.” value (HIV-1; 0.01 uG/mL, CEM-SS, HIV1 RF)?
Its value is 0.042 O.D.

What about the “% RED. IN VIRAL CPE” value (HIV-1; 0.032 uG/mL, CEM-SS, HIV1 RF) of the same compound?
The value was 7%.

What about the “ANTIVIRAL TEST VALUES MEAN O.D.” value (HIV-1; 0.032 uG/mL, CEM-SS, HIV1 RF) of the same compound?
The value was 0.083 O.D.

What about the “% RED. IN VIRAL CPE” value (HIV-1; 0.1 uG/mL, CEM-SS, HIV1 RF) of the same compound?
The value was 2%.

What about the “ANTIVIRAL TEST VALUES MEAN O.D.” value (HIV-1; 0.1 uG/mL, CEM-SS, HIV1 RF) of the same compound?
Its value is 0.021 O.D.

And the “% RED. IN VIRAL CPE” value (HIV-1; 0.32 uG/mL, CEM-SS, HIV1 RF)?
Its value is 4%.

What about the “ANTIVIRAL TEST VALUES MEAN O.D.” value (HIV-1; 0.32 uG/mL, CEM-SS, HIV1 RF) of the same compound?
Its value is 0.051 O.D.

And the “% RED. IN VIRAL CPE” value (HIV-1; 1 uG/mL, CEM-SS, HIV1 RF)?
Its value is 9%.

What about the “ANTIVIRAL TEST VALUES MEAN O.D.” value (HIV-1; 1 uG/mL, CEM-SS, HIV1 RF) of the same compound?
Its value is 0.103 O.D.

And the “% RED. IN VIRAL CPE” value (HIV-1; 3.2 uG/mL, CEM-SS, HIV1 RF)?
The value was 2%.

And the “ANTIVIRAL TEST VALUES MEAN O.D.” value (HIV-1; 3.2 uG/mL, CEM-SS, HIV1 RF)?
The value was 0.025 O.D.

What about the “% RED. IN VIRAL CPE” value (HIV-1; 10 uG/mL, CEM-SS, HIV1 RF) of the same compound?
The value was 11%.

What about the “ANTIVIRAL TEST VALUES MEAN O.D.” value (HIV-1; 10 uG/mL, CEM-SS, HIV1 RF) of the same compound?
Its value is 0.123 O.D.

And the “% RED. IN VIRAL CPE” value (HIV-1; 32 uG/mL, CEM-SS, HIV1 RF)?
The value was 100%.

What about the “ANTIVIRAL TEST VALUES MEAN O.D.” value (HIV-1; 32 uG/mL, CEM-SS, HIV1 RF) of the same compound?
The value was 1.515 O.D.

What about the “% RED. IN VIRAL CPE” value (HIV-1; 32 uG/mL, CEM-SS, HIV1 RF, listed as BVS10A) of the same compound?
Its value is 100%.

What about the “% RED. IN VIRAL CPE” value (HIV-1; 100 uG/mL, CEM-SS, HIV1 RF) of the same compound?
The value was 100%.

What about the “ANTIVIRAL TEST VALUES MEAN O.D.” value (HIV-1; 100 uG/mL, CEM-SS, HIV1 RF) of the same compound?
Its value is 1.717 O.D.

What about the “% RED. IN VIRAL CPE” value (HIV-1; 100 uG/mL, CEM-SS, HIV1 RF, listed as BVS10A) of the same compound?
Its value is 100%.

What about the IC95 (HIV-1; CEM-SS cells) of the same compound?
Its IC95 is 30 µg/mL (≈ 32.9 µM).

What about the “IC 25%” value (HIV-1; CEM-SS, HIV1 RF) of the same compound?
Its value is 12.00 UG/mL.

What about the “IC 95%” value (HIV-1; CEM-SS, HIV1 RF) of the same compound?
The value was 30.00 UG/mL.

What about the MIC [1] of the same compound?
The MIC was 0.128 to 1.28 µg/mL (≈ 0.14 to 1.4 µM).

What about the MIC [2] of the same compound?
Its MIC is 0.128 to 1.28 µg/mL (≈ 0.14 to 1.4 µM).

What about the MIC [3] of the same compound?
The MIC was 1.28 to 12.8 µg/mL (≈ 1.4 to 14 µM).

What about the MIC [4] of the same compound?
The MIC was under 0.128 µg/mL.

And the MIC [5]?
The MIC was under 0.128 µg/mL.

And the MIC [6]?
The MIC was 1.28 to 12.8 µg/mL (≈ 1.4 to 14 µM).

And the MIC [7]?
Its MIC is under 0.128 µg/mL.

— patent US6699989B1, “Antiviral and antimicrobial guanidine or biguanidine derivatives” (priority 2000, dated 2004)
